1 compound from publication PMC12669040, “Tumour-specific STING agonist synthesis via a two-component prodrug system” (Nature Chemistry, 2025) can be followed below.

A short description of data set [1]: LC-MS analysis of the N1–E4 reaction in the presence of glutathione. It is filed as physicochemical. The following applies: 50 μM N1 + 50 μM E4, 1 mM glutathione, pH 7.0, 37 °C, 2 h. The procedure: Extended Data Fig. 5 LC-MS analysis of the reaction between N1 and E4 in the presence of glutathione (1 mM). N1 (50 μM) and E4 (50 μM) were reacted at neutral pH (25 mM HEPES pH 7.0, 150 mM NaCl) and in the presence of reduced glutathione (1 mM). The reaction mixture was incubated at 37 °C for 2 h. No glutathione-adduct of E4 was identified. TEXT PRINTED IN THE PICTURE: no label printed: exact mass: 340.04 | no label printed: exact mass: 618.05

A further data set addresses E. coli β-glucuronidase (Escherichia coli, UniProt P05804). The following applies: pH 6.8.
The test system of the next data set is CT26mβGUS tumours. The following applies: mouse, in vivo.
Another data set deals with THP-1 cells. Put plainly: Dilution limits of N1/E4 combination to activate THP-1 cells (IFN-β ELISA). The following applies: IFN-β secretion, 6 h, single component.

Chain of E. coli β-glucuronidase (P05804 whole entry): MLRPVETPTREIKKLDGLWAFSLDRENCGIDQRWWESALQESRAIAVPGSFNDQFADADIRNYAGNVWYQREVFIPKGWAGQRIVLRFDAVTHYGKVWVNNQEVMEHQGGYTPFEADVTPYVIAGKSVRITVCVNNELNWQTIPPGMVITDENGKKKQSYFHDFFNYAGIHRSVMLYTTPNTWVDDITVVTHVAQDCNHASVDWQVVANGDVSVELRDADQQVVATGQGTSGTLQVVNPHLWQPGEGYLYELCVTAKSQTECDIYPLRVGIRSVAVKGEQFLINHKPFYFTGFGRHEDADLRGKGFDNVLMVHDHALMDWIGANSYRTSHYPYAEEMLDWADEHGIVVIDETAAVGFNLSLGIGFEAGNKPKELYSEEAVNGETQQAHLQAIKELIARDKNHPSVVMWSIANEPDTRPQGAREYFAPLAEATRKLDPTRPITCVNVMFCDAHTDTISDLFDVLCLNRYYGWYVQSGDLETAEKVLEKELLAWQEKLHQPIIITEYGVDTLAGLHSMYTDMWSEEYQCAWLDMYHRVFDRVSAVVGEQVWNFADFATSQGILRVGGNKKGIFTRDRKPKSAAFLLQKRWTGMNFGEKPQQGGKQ

With `COc1cc2sc(C(=O)CCC(=O)O)cc2cc1SCCCl` [Compound E4], the glutathione adduct formation entry in data set [1] is on record as “No glutathione–E4 adduct was detected”. In addition, the “stability in phosphate buffer without added enzyme” value at E. coli β-glucuronidase is given as “most E4 underwent hydrolysis”. Also, the body weight result with CT26mβGUS tumours is given as “no significant losses were observed”. In the data set with THP-1 cells, the “concentration up to which no STING activation was shown (alone)” value is over 64 µM.
